In patent US10681909B2, “Herbicidal triazoles” (FMC Corporation, priority 2014, dated 2020):

Columns and labels:
foxtail, giant = test: Test A preemergence; format: in vivo, Setaria faberii; details: 0 to 100 scale (0 no effect, 100 complete control)
How it was run: (§1)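 Test chemicals, formulated in a surfactant-containing non-phytotoxic solvent mixture, are applied either as a directed soil spray to newly planted seeds or as a postemergence application to plants at the one- to two-leaf stage (2–10 cm). All plants grow in a loam soil and sand blend.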

pigweed = test: Test A preemergence; format: in vivo, Amaranthus retroflexus; details: 0 to 100 scale (0 no effect, 100 complete control)
How it was run: as §1

barnyardgrass = test: Test A postemergence; format: in vivo, Echinochloa crus-galli; details: 0 to 100 scale (0 no effect, 100 complete control), approx. 10 d
How it was run: as §1

corn = test: Test A postemergence; format: in vivo, Zea mays; details: 0 to 100 scale (0 no effect, 100 complete control), approx. 10 d
How it was run: as §1

rice = test: Test B flooded paddy test; format: in vivo, Oryza sativa; details: 250 g ai/ha, applied to paddy water at 2-leaf stage, visual rating after 13 to 15 d, scale 0 (no effect) to 100 (complete control)
How it was run: (§2)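 Pots were flooded to 3 cm above the soil at treatment, and compounds were applied directly into the paddy water. That depth was held throughout. After 13 to 15 d in a greenhouse, plants were rated visually against untreated controls.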

sedge, umbrella = test: Test B flooded paddy test; format: in vivo, Cyperus difformis; details: 250 g ai/ha, applied to paddy water at 2-leaf stage, visual rating after 13 to 15 d, scale 0 (no effect) to 100 (complete control)
How it was run: as §2

ducksalad = test: Test B flooded paddy test; format: in vivo, Heteranthera limosa; details: 250 g ai/ha, applied to paddy water at 2-leaf stage, visual rating after 13 to 15 d, scale 0 (no effect) to 100 (complete control)
How it was run: as §2

ryegrass, Italian = test: Test C postemergence; format: in vivo, Lolium multiflorum
How it was run: (§3)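 Test chemicals in a non-phytotoxic solvent mixture with surfactant were applied to pots of plants at 2 to 18 cm (1- to 4-leaf stage) for postemergence treatment, grown in a peat-based medium with vermiculite, starter nutrients and dolomitic limestone. Preemergence treatment was to seeds freshly planted in loam soil mixed with sand.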

wheat (winter wheat) = test: Test C postemergence; format: in vivo, Triticum aestivum
How it was run: as §3

morningglory = test: Test C postemergence; format: in vivo, Ipomoea coccinea
How it was run: as §3

nutsedge, yellow = test: Test C postemergence; format: in vivo, Cyperus esculentus
How it was run: as §3

soybean = test: Test C postemergence; format: in vivo, Glycine max
How it was run: as §3

chickweed = test: Test C postemergence; format: in vivo, Stellaria media
How it was run: as §3

oat, wild = test: Test C postemergence; format: in vivo, Avena fatua
How it was run: as §3

Row | SMILES | Plant response rating, Foxtail, Giant (foxtail, giant; 125 g ai/ha) | Plant response rating, Foxtail, Giant (foxtail, giant; 500 g ai/ha, approx. 10 d) | Plant response rating, Pigweed (pigweed; 125 g ai/ha) | Plant response rating, Pigweed (pigweed; 500 g ai/ha, approx. 10 d) | Plant response rating, Barnyardgrass (barnyardgrass; 125 g ai/ha) | Plant response rating, Barnyardgrass (barnyardgrass; 500 g ai/ha) | Plant response rating, Corn (corn; 125 g ai/ha) | Plant response rating, Corn (corn; 500 g ai/ha) | Plant response rating, Rice, Flood (rice) | Plant response rating, Sedge, Umbrella, Flood (sedge, umbrella) | Plant response rating, Ducksalad, Flood (ducksalad) | Plant response rating (scale of 0 to 100 where 0 is no effect and 100 is complete control) (ryegrass, Italian; 31 g ai/ha) | Plant response rating (scale of 0 to 100 where 0 is no effect and 100 is complete control) (ryegrass, Italian; 62 g ai/ha) | Plant response rating (scale of 0 to 100 where 0 is no effect and 100 is complete control) (ryegrass, Italian; 125 g ai/ha) | Plant response rating (scale of 0 to 100 where 0 is no effect and 100 is complete control) (ryegrass, Italian; 250 g ai/ha) | Plant response rating (scale of 0 to 100 where 0 is no effect and 100 is complete control) (wheat (winter wheat); 31 g ai/ha) | Plant response rating (scale of 0 to 100 where 0 is no effect and 100 is complete control) (wheat (winter wheat); 62 g ai/ha) | Plant response rating (scale of 0 to 100 where 0 is no effect and 100 is complete control) (wheat (winter wheat); 125 g ai/ha) | Plant response rating (scale of 0 to 100 where 0 is no effect and 100 is complete control) (wheat (winter wheat); 250 g ai/ha) | Plant response rating (scale of 0 to 100 where 0 is no effect and 100 is complete control) (morningglory; 31 g ai/ha) | also measured
1 | COc1nc(-c2ccc(Cl)cc2)nn1Cc1ccnc(C(F)(F)F)c1 [Compound 28] | 100 | 100 | 100 | 100 | 30 | 80 | 10 | 40 | 30 | 100 | 90 | 5 | 5 | 10 | 15 | 0 | 5 | 5 | 10 | 70 | Plant response rating (scale of 0 to 100 where 0 is no effect and 100 is complete control) (morningglory; 62 g ai/ha): 60; Plant response rating (scale of 0 to 100 where 0 is no effect and 100 is complete control) (morningglory; 125 g ai/ha): 65; Plant response rating (scale of 0 to 100 where 0 is no effect and 100 is complete control) (morningglory; 250 g ai/ha): 100; Plant response rating (scale of 0 to 100 where 0 is no effect and 100 is complete control) (nutsedge, yellow; 31 g ai/ha): 5; Plant response rating (scale of 0 to 100 where 0 is no effect and 100 is complete control) (nutsedge, yellow; 62 g ai/ha): 5; Plant response rating (scale of 0 to 100 where 0 is no effect and 100 is complete control) (nutsedge, yellow; 125 g ai/ha): 15; Plant response rating (scale of 0 to 100 where 0 is no effect and 100 is complete control) (nutsedge, yellow; 250 g ai/ha): 10; Plant response rating (scale of 0 to 100 where 0 is no effect and 100 is complete control) (soybean; 31 g ai/ha): 45; Plant response rating (scale of 0 to 100 where 0 is no effect and 100 is complete control) (soybean; 62 g ai/ha): 70; Plant response rating (scale of 0 to 100 where 0 is no effect and 100 is complete control) (soybean; 125 g ai/ha): 55; Plant response rating (scale of 0 to 100 where 0 is no effect and 100 is complete control) (soybean; 250 g ai/ha): 60; Plant response rating (scale of 0 to 100 where 0 is no effect and 100 is complete control) (chickweed; 31 g ai/ha): 80; Plant response rating (scale of 0 to 100 where 0 is no effect and 100 is complete control) (chickweed; 62 g ai/ha): 95; Plant response rating (scale of 0 to 100 where 0 is no effect and 100 is complete control) (chickweed; 125 g ai/ha): 90; Plant response rating (scale of 0 to 100 where 0 is no effect and 100 is complete control) (chickweed; 250 g ai/ha): 90; Plant response rating (scale of 0 to 100 where 0 is no effect and 100 is complete control) (oat, wild; 31 g ai/ha): 5; Plant response rating (scale of 0 to 100 where 0 is no effect and 100 is complete control) (oat, wild; 62 g ai/ha): 5; Plant response rating (scale of 0 to 100 where 0 is no effect and 100 is complete control) (oat, wild; 125 g ai/ha): 10; Plant response rating (scale of 0 to 100 where 0 is no effect and 100 is complete control) (oat, wild; 250 g ai/ha): 15
2 | Fc1ccc(-c2nc(OCC(F)(F)F)n(Cc3ccnc(C(F)(F)F)c3)n2)cc1 [Compound 30] | 100 | 100 | 100 | 100 | 80 | 90 | 40 | 50 | 30 | 90 | 80 | 20 | 25 | 30 | 50 | 5 | 5 | 15 | 20 | 80 | Plant response rating (scale of 0 to 100 where 0 is no effect and 100 is complete control) (morningglory; 62 g ai/ha): 70; Plant response rating (scale of 0 to 100 where 0 is no effect and 100 is complete control) (morningglory; 125 g ai/ha): 80; Plant response rating (scale of 0 to 100 where 0 is no effect and 100 is complete control) (morningglory; 250 g ai/ha): 100; Plant response rating (scale of 0 to 100 where 0 is no effect and 100 is complete control) (nutsedge, yellow; 31 g ai/ha): 5; Plant response rating (scale of 0 to 100 where 0 is no effect and 100 is complete control) (nutsedge, yellow; 62 g ai/ha): 5; Plant response rating (scale of 0 to 100 where 0 is no effect and 100 is complete control) (nutsedge, yellow; 125 g ai/ha): 10; Plant response rating (scale of 0 to 100 where 0 is no effect and 100 is complete control) (nutsedge, yellow; 250 g ai/ha): 15; Plant response rating (scale of 0 to 100 where 0 is no effect and 100 is complete control) (soybean; 31 g ai/ha): 25; Plant response rating (scale of 0 to 100 where 0 is no effect and 100 is complete control) (soybean; 62 g ai/ha): 45; Plant response rating (scale of 0 to 100 where 0 is no effect and 100 is complete control) (soybean; 125 g ai/ha): 60; Plant response rating (scale of 0 to 100 where 0 is no effect and 100 is complete control) (soybean; 250 g ai/ha): 75; Plant response rating (scale of 0 to 100 where 0 is no effect and 100 is complete control) (chickweed; 31 g ai/ha): 95; Plant response rating (scale of 0 to 100 where 0 is no effect and 100 is complete control) (chickweed; 62 g ai/ha): 95; Plant response rating (scale of 0 to 100 where 0 is no effect and 100 is complete control) (chickweed; 125 g ai/ha): 100; Plant response rating (scale of 0 to 100 where 0 is no effect and 100 is complete control) (chickweed; 250 g ai/ha): 100; Plant response rating (scale of 0 to 100 where 0 is no effect and 100 is complete control) (oat, wild; 31 g ai/ha): 25; Plant response rating (scale of 0 to 100 where 0 is no effect and 100 is complete control) (oat, wild; 62 g ai/ha): 15; Plant response rating (scale of 0 to 100 where 0 is no effect and 100 is complete control) (oat, wild; 125 g ai/ha): 30; Plant response rating (scale of 0 to 100 where 0 is no effect and 100 is complete control) (oat, wild; 250 g ai/ha): 45
